This passage reports IC50 results from patent US20240317721A1, “PYRAZOLYL DERIVATIVES AS INHIBITORS OF THE KRAS MUTANT PROTEIN” (NOVARTIS AG, priority 2021, published 2024).

Bounds are passed on as bounds.

In the assay the target is KRasG12C (M1-K169, biotinylated on the N-terminus) (Homo sapiens (Human), UniProt P01116, G12C). Briefly: Covalent competition assay: scintillation proximity assay (SPA) quantifying covalent modification of KRASG12C. The assay is classed as binding. The conditions noted are these: competition with radiolabeled covalent probe (Compound B/Compound A), 2 hours incubation, 10 nM KRasG12C. On the procedure:
Cells were harvested by centrifugation and frozen at −80° C. until further processing. […] The cells were lysed by 4 passages through an Avestin Emulsiflex at about 20000 psi and insoluble debris removed by centrifugation and filtered through a 0.45 µm Durapore membrane (Millipore). […] Eluted protein fractions were analyzed by Novex NuPage 4-12% PAGE. […] The protein in the flow through was subjected to a final polishing step on a HiLoad 16/60 Superdex 200 prep grade size-exclusion column pre-equilibrated with SEC-buffer (20 mM HEPES pH 7.4, 150 mM NaCl, 5 mM MgCl2, 1 µM GDP). Positive fractions were determined by PAGE (Novex NuPage 4-12% BisTris) analysis.
A scintillation proximity assay (SPA) was used to determine the potency of the compounds.
This assay measures the ability of the test compound to compete with the radiolabeled covalent probe for binding to and covalently modify KRASG12C.
(see above for synthesis of Compound A and Compound B). A serial dilution of the compounds to be tested is mixed with a fixed concentration of the radiolabeled covalent probe before incubation with KRASG12C:GDP as described below. KRASG12C can either be bound by the radiolabeled covalent probe (Compound B), resulting in light being emitted from the beads, or bound by covalent test compound preventing signal generation.
A 1/20 isotopic dilution of labeled (Compound B) and non-labeled covalent (Compound A) probe was prepared and added to all wells on the plate. The reaction was started by addition of KRasG12C (M1-K169, biotinylated on the N-terminus) to the compounds and incubated for 2 hours with continuous agitation allowing for full modification of KRasG12C with probe or test compounds. Final concentrations in an assay volume of 40 μL were 10 nM KRasG12C, 25 nM radio-ligand and 475 nM unlabelled ligand. The assay buffer contained 20 mM Tris-HCl pH 7.5 (Invitrogen), 150 mM NaCl (Sigma Aldrich), 0.1 mM MgCl2 (Sigma Aldrich), and 0.01% Tween-20 (Sigma Aldrich). Following addition of 50 μL of a 400 μg/mL suspension of streptavidin-coated YSi beads (Perkin Elmer), plates were incubated for a further 30 min with continuous agitation before reading the plates on a scintillation counter (Topcount NXT 384 (Packard).
Evaluation was carried out using assay data analysis software (such as the standard Novartis in-house Helios software application, Novartis Institutes for BioMedical Research, unpublished) using the methods described in Formenko et al., Robust Regression for high-throughput screening, Computer Methods and Programs in Biomedicine, 2006, 82, 31-37. Following normalization of activity values for the wells to % inhibition (% inhibition=[(high control−sample)/(high control−low control)]×100), IC50 fitting was carried out from the duplicate determinations present on each plate according to Formenko et al., 2006.
Evaluation can also be carried out using commercially available software which is designed to derive IC50 values using 4-parameter fits (e.g. GraphPad Prism, XL fit).
(In general: Scintillation proximity formats need no separation of bound from free tracer.)
By IC50 is commonly meant the concentration at which inhibition is half-maximal. `C=CC(=O)N1CC2(CC(n3nc(N4CCc5cnn(C)c5C4)c(-c4c(Cl)c(C)cc5[nH]ncc45)c3C)C2)C1` (single isomer, unassigned) [Example 14a, 1-(6-(4-(5-chloro-6-methyl-1H-indazol-4-yl)-5-methyl-3-(1-methyl-1,4,5,7-tetrahydro-6H-pyrazolo[3,4-c]pyridin-6-yl)-1H-pyrazol-1-yl)-2-azaspiro[3.3]heptan-2-yl)prop-2-en-1-one]: the IC50 is more than 50000 nM.
Under `C=CC(=O)N1CC2(CC(n3nc(N4CCc5cnn(C)c5C4)c(-c4c(Cl)c(C)cc5[nH]ncc45)c3C)C2)C1` (single isomer, unassigned) [Example 14b, 1-(6-(4-(5-chloro-6-methyl-1H-indazol-4-yl)-5-methyl-3-(1-methyl-1,4,5,7-tetrahydro-6H-pyrazolo[3,4-c]pyridin-6-yl)-1H-pyrazol-1-yl)-2-azaspiro[3.3]heptan-2-yl)prop-2-en-1-one] stands 364 nM; under `C=CC(=O)N1CC2(CC(n3nc(N4CCc5ncncc5C4)c(-c4c(Cl)c(C)cc5[nH]ncc45)c3C)C2)C1` (single isomer, unassigned) [Example 15a, 1-(6-(4-(5-chloro-6-methyl-1H-indazol-4-yl)-3-(7,8-dihydropyrido[4,3-d]pyrimidin-6(5H)-yl)-5-methyl-1H-pyrazol-1-yl)-2-azaspiro[3.3]heptan-2-yl)prop-2-en-1-one], 18000 nM; under `C=CC(=O)N1CC2(CC(n3nc(N4CCc5ncncc5C4)c(-c4c(Cl)c(C)cc5[nH]ncc45)c3C)C2)C1` (single isomer, unassigned) [Example 15b, 1-(6-(4-(5-chloro-6-methyl-1H-indazol-4-yl)-3-(7,8-dihydropyrido[4,3-d]pyrimidin-6(5H)-yl)-5-methyl-1H-pyrazol-1-yl)-2-azaspiro[3.3]heptan-2-yl)prop-2-en-1-one], 305 nM.
Under `C=CC(=O)N1CC2(CC(n3nc(N4CCN(C(C)=O)CC4(C)C)c(-c4c(Cl)c(C)cc5[nH]ncc45)c3C)C2)C1` (single isomer, unassigned) [Example 18a, 1-(6-(3-(4-acetyl-2,2-dimethylpiperazin-1-yl)-4-(5-chloro-6-methyl-1H-indazol-4-yl)-5-methyl-1H-pyrazol-1-yl)-2-azaspiro[3.3]heptan-2-yl)prop-2-en-1-one] stands 6100 nM; under `C=CC(=O)N1CC2(CC(n3nc(N4CCN(C(C)=O)CC4(C)C)c(-c4c(Cl)c(C)cc5[nH]ncc45)c3C)C2)C1` (single isomer, unassigned) [Example 18b, 1-(6-(3-(4-acetyl-2,2-dimethylpiperazin-1-yl)-4-(5-chloro-6-methyl-1H-indazol-4-yl)-5-methyl-1H-pyrazol-1-yl)-2-azaspiro[3.3]heptan-2-yl)prop-2-en-1-one], 31 nM; under `C=CC(=O)N1CC2(CC(n3nc(N4CCn5ccnc5C4)c(-c4c(Cl)c(C)cc5[nH]ncc45)c3C)C2)C1` (single isomer, unassigned) [Example 19a, 1-(6-(4-(5-chloro-6-methyl-1H-indazol-4-yl)-3-(5,6-dihydroimidazo[1,2-a]pyrazin-7(8H)-yl)-5-methyl-1H-pyrazol-1-yl)-2-azaspiro[3.3]heptan-2-yl)prop-2-en-1-one], 894 nM.
Consider `C=CC(=O)N1CC2(CC(n3nc(N4CCn5ccnc5C4)c(-c4c(Cl)c(C)cc5[nH]ncc45)c3C)C2)C1` (single isomer, unassigned) [Example 19b, 1-(6-(4-(5-chloro-6-methyl-1H-indazol-4-yl)-3-(5,6-dihydroimidazo[1,2-a]pyrazin-7(8H)-yl)-5-methyl-1H-pyrazol-1-yl)-2-azaspiro[3.3]heptan-2-yl)prop-2-en-1-one], for which the IC50 worked out at 34700 nM.
Under `C=CC(=O)N1CC2(CC(n3nc(N4CCN(C(C)=O)C5(CCC5)C4)c(-c4c(Cl)c(C)cc5[nH]ncc45)c3C)C2)C1` (single isomer, unassigned) [Example 20a, 1-(6-(3-(5-acetyl-5,8-diazaspiro[3.5]nonan-8-yl)-4-(5-chloro-6-methyl-1H-indazol-4-yl)-5-methyl-1H-pyrazol-1-yl)-2-azaspiro[3.3]heptan-2-yl)prop-2-en-1-one] stands 301 nM; under `C=CC(=O)N1CC2(CC(n3nc(N4CCN(C(C)=O)C5(CCC5)C4)c(-c4c(Cl)c(C)cc5[nH]ncc45)c3C)C2)C1` (single isomer, unassigned) [Example 20b, 1-(6-(3-(5-acetyl-5,8-diazaspiro[3.5]nonan-8-yl)-4-(5-chloro-6-methyl-1H-indazol-4-yl)-5-methyl-1H-pyrazol-1-yl)-2-azaspiro[3.3]heptan-2-yl)prop-2-en-1-one], 38300 nM; under `C=CC(=O)N1CC2(CC(n3nc(N4CCN(C(C)=O)CC45CCC5)c(-c4c(Cl)c(C)cc5[nH]ncc45)c3C)C2)C1` (single isomer, unassigned) [Example 21a, 1-(6-(3-(8-acetyl-5,8-diazaspiro[3.5]nonan-5-yl)-4-(5-chloro-6-methyl-1H-indazol-4-yl)-5-methyl-1H-pyrazol-1-yl)-2-azaspiro[3.3]heptan-2-yl)prop-2-en-1-one], 11100 nM.
Then `C=CC(=O)N1CC2(CC(n3nc(N4CCN(C(C)=O)CC45CCC5)c(-c4c(Cl)c(C)cc5[nH]ncc45)c3C)C2)C1` (single isomer, unassigned) [Example 21b, 1-(6-(3-(8-acetyl-5,8-diazaspiro[3.5]nonan-5-yl)-4-(5-chloro-6-methyl-1H-indazol-4-yl)-5-methyl-1H-pyrazol-1-yl)-2-azaspiro[3.3]heptan-2-yl)prop-2-en-1-one], with 17 nM.
Then `C=CC(=O)N1CC2(CC(n3nc(N4CCOCC4(C)C)c(-c4c(Cl)c(C)cc5[nH]ncc45)c3C)C2)C1` (single isomer, unassigned) [Example 22a, 1-(6-(4-(5-chloro-6-methyl-1H-indazol-4-yl)-3-(3,3-dimethylmorpholino)-5-methyl-1H-pyrazol-1-yl)-2-azaspiro[3.3]heptan-2-yl)prop-2-en-1-one], with more than 50000 nM; and `C=CC(=O)N1CC2(CC(n3nc(N4CCOCC4(C)C)c(-c4c(Cl)c(C)cc5[nH]ncc45)c3C)C2)C1` (single isomer, unassigned) [Example 22b, 1-(6-(4-(5-chloro-6-methyl-1H-indazol-4-yl)-3-(3,3-dimethylmorpholino)-5-methyl-1H-pyrazol-1-yl)-2-azaspiro[3.3]heptan-2-yl)prop-2-en-1-one], with 113 nM; and `C=CC(=O)N1CC2(CC(n3nc(N4CCn5ccnc5C4(C)C)c(-c4c(Cl)c(C)cc5[nH]ncc45)c3C)C2)C1` (single isomer, unassigned) [Example 23a, 1-(6-(4-(5-chloro-6-methyl-1H-indazol-4-yl)-3-(8,8-dimethyl-5,6-dihydroimidazo[1,2-a]pyrazin-7(8H)-yl)-5-methyl-1H-pyrazol-1-yl)-2-azaspiro[3.3]heptan-2-yl)prop-2-en-1-one], with more than 50000 nM.
`C=CC(=O)N1CC2(CC(n3nc(N4CCn5ccnc5C4(C)C)c(-c4c(Cl)c(C)cc5[nH]ncc45)c3C)C2)C1` (single isomer, unassigned) [Example 23b, 1-(6-(4-(5-chloro-6-methyl-1H-indazol-4-yl)-3-(8,8-dimethyl-5,6-dihydroimidazo[1,2-a]pyrazin-7(8H)-yl)-5-methyl-1H-pyrazol-1-yl)-2-azaspiro[3.3]heptan-2-yl)prop-2-en-1-one]: the IC50 was found to be 634 nM.
Under `C=CC(=O)N1CC2(CC(n3nc(N4CCN(C(C)=O)CC4(C)C)c(-c4c(Cl)c(C)cc5[nH]ncc45)c3C3CC3)C2)C1` (single isomer, unassigned) [Example 24a, 1-(6-(3-(4-acetyl-2,2-dimethylpiperazin-1-yl)-4-(5-chloro-6-methyl-1H-indazol-4-yl)-5-cyclopropyl-1H-pyrazol-1-yl)-2-azaspiro[3.3]heptan-2-yl)prop-2-en-1-one] stands more than 50000 nM.
Under `C=CC(=O)N1CC2(CC(n3nc(N4CCN(C(C)=O)CC4(C)C)c(-c4c(Cl)c(C)cc5[nH]ncc45)c3C3CC3)C2)C1` (single isomer, unassigned) [Example 24b, 1-(6-(3-(4-acetyl-2,2-dimethylpiperazin-1-yl)-4-(5-chloro-6-methyl-1H-indazol-4-yl)-5-cyclopropyl-1H-pyrazol-1-yl)-2-azaspiro[3.3]heptan-2-yl)prop-2-en-1-one] stands 167 nM.
